Assays:
[1] = test system: MCF-7 cells; experiment: Cytotoxic effects, survival rate of the cells (FIG. 3B); conditions: standardized to untreated control cells = 100%; combinations with 100 μmol DAMGO
Excerpt: The same cell line was used to determine the cytotoxic effects of these active ingredients by determining the rate of survival of the cells (FIG. 3B). […] TNFα was used as a positive control.
The survival rate was standardized to the number of untreated control cells representing 100%. Means±SEM from 4 repeat experiments.

[2] = test system: human MCF-7 breast cancer cells; experiment: Cell proliferation test (FIG. 3A); assay type: cell-based; conditions: for proliferation of MCF-7 cells compared to the untreated control: 100 or 500 μmol DAMGO, 100 μmol naloxone, 500 μmol DAMGO+100 μmol naloxone
Excerpt: FIG. 3A Proliferation of MCF-7 cells in vitro after treatment with 100 μmol DAMGO (solid triangles), 500 μmol DAMGO (solid squares)(left), 100 μmol naloxone (open circles) or the mixture containing 500 μmol DAMGO+100 μmol naloxone (open triangles)(right) versus untreated control cells (solid circles). Means±SEM from 4-6 repeat experiments.

[3] = test system: MCF-7 cells; experiment: DNA cleavage rate with apoptosis assay kit (FIG. 4); assay type: cell-based, human; conditions: 500 μmol; incubation for 24 hours
Protocol: In order to characterize apoptosis (cell death) in more detail, a commercial apoptosis assay kit that is in common use in science was used to measure the rate of DNA cleavage (FIG. 4).
FIG. 4 DNA cleavage rate after incubation of MCF-7 cells for 24 hours with the active ingredients at the dosages indicated on the abscissa. Means±SEM from 6 independent experiments. DNA cleavage was measured by assaying the mono- and oligonucleosomes with an apoptosis detection kit containing antihistones and anti-DNA antibodies.

[4] = test system: MCF-7 cells; experiment: Flow cytometry of annexin V and 7-AAD binding, apoptosis rate (FIG. 6); assay type: cell-based, human
[5] = Development of the body weight during treatment (FIG. 1B); conditions: 3 weeks of treatment as in FIG. 1A
Protocol: In an established pharmacological animal model, naked mice (NMRI-nu/nu; Harlan, Borchen) received a subcutaneous injection containing a cell suspension (5×10^6 cells in 300 μl per mouse) of human breast carcinoma cells (MCF-7 cell line).
A total of 5×10^6 cells were injected subcutaneously per mouse. […] The animals were treated with 10 mg/kg β-estradiol valerate (i.m.) one day before and 7 and 14 days after the injection of tumor cells. […] Tumor volume=(long diameter×short diameter^2)/2.
FIG. 1B Development of the body weight during treatment. Treatment as in 1A.

[6] = test system: MCF-7 cells; conditions: 24 hours after treatment; 0.5, 1.0, 2.0 mmol; combination 0.5 mmol morphine+0.1 mmol naloxone and 1 mmol+1 mmol
[7] = test system: MCF-7 cells; conditions: cited from earlier work
[8] = 1 mmol, 24 hours after treatment (not shown)
[9] = 2 mmol, 24 hours after treatment
[10] = 3 mmol, 24 hours after treatment

| Molecule | survival rate of MCF-7 cells (cytotoxic effect) [1] | proliferation of MCF-7 cells compared to the untreated control [2] | time at which the maximal number of cells was attained ([2]; DAMGO-treated cultures) | cell death in treated cultures ([2]; between 48 and 72 hours) | rate of DNA cleavage compared to the untreated control [3] | number of cells in late apoptosis [4, 8] | number of cells in late apoptosis [4, 9] | number of cells in late apoptosis [4, 10] | body weight [5] | number of cells in G1 phase (block of cell cycle from G1 to S phase) [6] | apoptosis in MCF-7 cells (positive control, known effect) [7] |
| --- | --- | --- | --- | --- | --- | --- | --- | --- | --- | --- | --- |
| C[C@@H](NC(=O)[C@@H](N)Cc1ccc(O)cc1)C(=O)NCC(=O)N(C)[C@@H](Cc1ccccc1)C(=O)NCCO [DAMGO, (D-Ala2, N-Methyl-Phe4, Gly-ol5)enkephalin] | concentration-dependent positive effect on the survival rate | reduced the cell division cycle substantially in a concentration-dependent fashion | 48 h | a fraction of the cells on DAMGO treatment died | increase significantly |  |  |  |  |  |  |
| CN1CC[C@]23c4c5ccc(O)c4O[C@H]2[C@@H](O)C=C[C@H]3[C@H]1C5 [morphine] |  |  |  |  |  | no longer detectable | less pronounced | clear increase in the number of cells in late apoptosis | weight loss | concentration-dependent increase in the number of cells in G1 phase |  |
| C=CCN1CC[C@]23c4c5ccc(O)c4O[C@H]2C(=O)CC[C@@]3(O)[C@H]1C5 [naloxone] | concentration-dependent positive effect on the survival rate | growth-inhibitory effect |  |  | increase significantly | no longer detectable | less pronounced | clear increase in the number of cells in late apoptosis | increased slightly | block the cell cycle in a similar fashion |  |
| TNFα |  |  |  |  |  |  |  |  |  |  | induce apoptosis |
